This experiment addresses T1, TRMT2A RRM (Homo sapiens, UniProt Q8IZ69).
T1 sequence (Q8IZ69 69-147): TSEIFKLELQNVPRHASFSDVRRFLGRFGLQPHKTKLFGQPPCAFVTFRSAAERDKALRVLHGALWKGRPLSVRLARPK
As to the kind of experiment: SPR. It counts as binding.

By Kd is commonly meant the constant that tells how readily two partners part at equilibrium.

Compound `NCCCNCCCCNCCCN` [spermine] returned a Kd of 1300 ± 270 nM.

These data come from paper PMC8759985 (Computational and Structural Biotechnology Journal, 2021).
